Where two headings read alike, the source gives them in different places.
What was measured:
[1] = Stability of S-compound in aqueous solution; type: physicochemical; conditions: 0.5% (wt./vol.) aqueous solution, pH 3 to 10, 2 weeks
[2] = Antimicrobial activity of Ofloxacin and S-compound (general statement); conditions: compared with Ofloxacin
[3] = U.S. Pat. No. 4,382,892; Antimicrobial Agent & Chemotherapy, Vol. 29, 163-164 (1986); cited from earlier work
[4] = tested on: mice; experiment: Acute toxicity in mice; conditions: p.o.

SMILES: C[C@H]1COc2c(N3CCN(C)CC3)c(F)cc3c(=O)c(C(=O)O)cn1c23 [S-compound, S-(-)-9-fluoro-3-methyl-10-(4-methyl-1-piperazinyl)-7-oxo-2,3-dihydro-7H-pyrido[1,2,3de][1,4]benzoxazine-6-carboxylic acid]
- decomposition (residual amount of S-compound) [1]: no decomposition was observed at all
- antimicrobial activities [2]: high antimicrobial activities
- antimicrobial activities [3]: potential antimicrobial activities

SMILES: CC1COc2c(N3CCN(C)CC3)c(F)cc3c(=O)c(C(=O)O)cn1c23 (racemic) [Ofloxacin, (±)-9-fluoro-3-methyl-10-(4-methyl-1-piperazinyl)-7-oxo-2,3-dihydro-7H-pyrido[1,2,3de][1,4]benzoxazine-6-carboxylic acid]
- antimicrobial activities [3]: excellent antimicrobial agent
- LD50 (acute toxicity) [4]: 5450 mg/kg
